Measurements: ChEMBL document CHEMBL5120945, “First-in-Class Allosteric Inhibitors of DNMT3A Disrupt Protein-Protein Interactions and Induce Acute Myeloid Leukemia Cell Differentiation” (J Med Chem, 2022)
Calls of active or inactive are those of the source.

How the values were obtained:
[1] = tested on: MV4-11; assay: Induction of myeloid differentiation in human MV4-11 cells assessed as increase in CD11b level measured after 72 hrs by propidium iodide staining based flow cytometry; format: functional, cell-based; settings: dose 5-10 µM, DDE = dose-dependent effect
[2] = target: T1, DNMT3A2/3L complex (Homo sapiens) (UniProt Q9Y6K1+Q9UJW3); assay: Inhibition of DNMT3L-mediated wild type full length recombinant human DNMT3A hetero tetramer expressed in NiCo21(DE3) competent Escherichia coli cells to DNMT3L protein-protein interaction assessed as DNA methylation using poly dl-dC as substrate incubated for 1 hr
T1 sequence (Q9UJW3 whole entry, looked up): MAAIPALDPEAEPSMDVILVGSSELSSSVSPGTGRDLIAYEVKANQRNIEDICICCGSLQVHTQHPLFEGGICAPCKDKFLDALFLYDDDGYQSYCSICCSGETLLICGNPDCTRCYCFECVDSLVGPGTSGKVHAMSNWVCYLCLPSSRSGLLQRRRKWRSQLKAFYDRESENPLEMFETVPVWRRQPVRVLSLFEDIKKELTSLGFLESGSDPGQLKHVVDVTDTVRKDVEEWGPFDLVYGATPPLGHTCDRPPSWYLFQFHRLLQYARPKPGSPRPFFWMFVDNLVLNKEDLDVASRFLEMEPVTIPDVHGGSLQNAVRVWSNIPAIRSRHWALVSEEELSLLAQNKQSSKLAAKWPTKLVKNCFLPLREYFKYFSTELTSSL
T1 sequence (Q9Y6K1 whole entry, looked up): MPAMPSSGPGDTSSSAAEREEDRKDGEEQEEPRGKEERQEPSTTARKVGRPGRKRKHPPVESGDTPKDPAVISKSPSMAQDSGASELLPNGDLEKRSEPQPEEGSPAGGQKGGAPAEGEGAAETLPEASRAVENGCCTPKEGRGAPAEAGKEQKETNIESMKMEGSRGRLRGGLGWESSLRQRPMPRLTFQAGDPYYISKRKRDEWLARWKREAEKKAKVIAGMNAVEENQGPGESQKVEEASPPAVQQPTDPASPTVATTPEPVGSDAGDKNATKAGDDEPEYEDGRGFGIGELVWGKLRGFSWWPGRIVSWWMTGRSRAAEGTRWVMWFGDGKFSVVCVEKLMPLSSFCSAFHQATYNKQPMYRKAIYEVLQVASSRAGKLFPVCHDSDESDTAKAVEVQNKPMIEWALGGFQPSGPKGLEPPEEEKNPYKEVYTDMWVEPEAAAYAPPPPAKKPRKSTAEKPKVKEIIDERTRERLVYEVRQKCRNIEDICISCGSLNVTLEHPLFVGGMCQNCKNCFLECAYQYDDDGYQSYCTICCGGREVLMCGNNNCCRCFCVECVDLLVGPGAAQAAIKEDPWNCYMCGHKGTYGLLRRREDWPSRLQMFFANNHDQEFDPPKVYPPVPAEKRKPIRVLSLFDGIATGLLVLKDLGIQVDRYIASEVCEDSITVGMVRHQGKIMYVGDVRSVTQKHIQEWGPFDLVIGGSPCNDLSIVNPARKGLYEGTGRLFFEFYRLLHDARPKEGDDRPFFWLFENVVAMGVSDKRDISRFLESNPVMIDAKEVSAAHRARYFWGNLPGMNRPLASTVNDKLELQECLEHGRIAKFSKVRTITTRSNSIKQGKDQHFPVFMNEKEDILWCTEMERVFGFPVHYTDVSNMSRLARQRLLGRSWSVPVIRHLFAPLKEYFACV

[3] = species on record: Homo sapiens; assay: Inhibition of full length recombinant human DNMT3A R736A mutant tetramer expressed in NiCo21(DE3) competent Escherichia coli cells to DNMT3L (unknown origin) protein-protein interaction preincubated for 1 hr
[4] = species on record: Homo sapiens; assay: Inhibition of wild type full length recombinant human DNMT3A expressed in NiCo21(DE3) competent Escherichia coli cells to human p53 protein-protein interaction using FAM/TGGATATCTAGGGGCGCTATGATAT as substrate incubated for 5 mins by microplate reader based fluorescence anisotropy assay; settings: DDE = dose-dependent effect
[5] = tested on: OCI-AML-3; assay: Induction of apoptosis in human OCI-AML-3 cells measured after 72 hrs by annexinV staining based flow cytometry; format: functional, cell-based; settings: dose 7-12 µM, DDE = dose-dependent effect
[6] = tested on: MV4-11; assay: Induction of apoptosis in human MV4-11 cells measured after 72 hrs by annexinVstaining based flow cytometry; format: functional, cell-based; settings: dose 7-12 µM, DDE = dose-dependent effect
[7] = target: T1, DNMT3A2/3L complex (Homo sapiens); assay: Inhibition of wild type full length recombinant human DNMT3A expressed in NiCo21(DE3) competent Escherichia coli cells to DNMT3L (unknown origin) protein-protein interaction
[8] = species on record: Homo sapiens; assay: Inhibition of full length recombinant human DNMT3A R882H mutant expressed in NiCo21(DE3) competent Escherichia coli cells to human p53
[9] = species on record: Homo sapiens; assay: Inhibition of full length recombinant human DNMT3A E733 mutant tetramer expressed in NiCo21(DE3) competent Escherichia coli cells
[10] = tested on: Kasumi 1; assay: Induction of apoptosis in human Kasumi 1 cells measured after 72 hrs by annexinV staining based flow cytometry; format: functional, cell-based; settings: dose 7-12 µM, DDE = dose-dependent effect
[11] = species on record: Homo sapiens; assay: Inhibition of full length recombinant human DNMT3A R729A mutant tetramer expressed in NiCo21(DE3) competent Escherichia coli cells to DNMT3L (unknown origin) protein-protein interaction preincubated for 1 hr
[12] = species on record: Homo sapiens; assay: Inhibition of full length recombinant human DNMT3A R729 mutant tetramer expressed in NiCo21(DE3) competent Escherichia coli cells
[13] = tested on: K562; assay: Induction of myeloid differentiation in human K562 cells assessed as increase in CD11b level measured after 72 hrs by propidium iodide staining based flow cytometry; format: functional, cell-based; settings: DDE = dose-dependent effect
[14] = tested on: MOLM-13; assay: Induction of apoptosis in human MOLM-13 cells measured after 72 hrs by annexinV staining based flow cytometry; format: functional, cell-based; settings: dose 7-12 µM, DDE = dose-dependent effect
[15] = species on record: Homo sapiens; assay: Inhibition of full length recombinant human DNMT3A R882H mutant expressed in NiCo21(DE3) competent Escherichia coli cells to human TDG
[16] = species on record: Homo sapiens; assay: Inhibition of full length recombinant human DNMT3A R882H mutant expressed in NiCo21(DE3) competent Escherichia coli cells
[17] = tested on: OCI-AML-3; assay: Induction of myeloid differentiation in human OCI-AML-3 cells assessed as increase in CD11b level measured after 72 hrs by propidium iodide staining based flow cytometry; format: functional, cell-based; settings: dose 5-10 µM, DDE = dose-dependent effect
[18] = tested on: HL-60; assay: Induction of DNA methylation in human HL-60 cells at 5 uM by ELISA; format: functional, cell-based; settings: time 3.0 day, TDE = time-dependent effect
[19] = target: DNA (cytosine-5)-methyltransferase 3A (Homo sapiens) (UniProt Q9Y6K1); assay: Inhibition of H3 peptide activated human full length DNMT3A expressed in NiCo21(DE3) competent Escherichia coli cells at 60 uM
DNA (cytosine-5)-methyltransferase 3A (Homo sapiens), sequence (Q9Y6K1 whole entry, looked up): as the sequence (Q9Y6K1 whole entry, looked up) above

[20] = target: T1, DNMT3A2/3L complex (Homo sapiens); assay: Inhibition of DNMT3L-mediated wild type full length recombinant human DNMT3A homo tetramer expressed in NiCo21(DE3) competent Escherichia coli cells to DNMT3L protein-protein interaction assessed as DNA methylation using poly dl-dC as substrate incubated for 1 hr
[21] = target: Lysine-specific demethylase 5A (Homo sapiens) (UniProt P29375); assay: Inhibition of KDM5A (1 to 797) activity using 21-mer biotinylated H3K4me3 peptide measured after 40 mins by TR-FRET assay
Lysine-specific demethylase 5A (Homo sapiens), sequence (P29375 whole entry): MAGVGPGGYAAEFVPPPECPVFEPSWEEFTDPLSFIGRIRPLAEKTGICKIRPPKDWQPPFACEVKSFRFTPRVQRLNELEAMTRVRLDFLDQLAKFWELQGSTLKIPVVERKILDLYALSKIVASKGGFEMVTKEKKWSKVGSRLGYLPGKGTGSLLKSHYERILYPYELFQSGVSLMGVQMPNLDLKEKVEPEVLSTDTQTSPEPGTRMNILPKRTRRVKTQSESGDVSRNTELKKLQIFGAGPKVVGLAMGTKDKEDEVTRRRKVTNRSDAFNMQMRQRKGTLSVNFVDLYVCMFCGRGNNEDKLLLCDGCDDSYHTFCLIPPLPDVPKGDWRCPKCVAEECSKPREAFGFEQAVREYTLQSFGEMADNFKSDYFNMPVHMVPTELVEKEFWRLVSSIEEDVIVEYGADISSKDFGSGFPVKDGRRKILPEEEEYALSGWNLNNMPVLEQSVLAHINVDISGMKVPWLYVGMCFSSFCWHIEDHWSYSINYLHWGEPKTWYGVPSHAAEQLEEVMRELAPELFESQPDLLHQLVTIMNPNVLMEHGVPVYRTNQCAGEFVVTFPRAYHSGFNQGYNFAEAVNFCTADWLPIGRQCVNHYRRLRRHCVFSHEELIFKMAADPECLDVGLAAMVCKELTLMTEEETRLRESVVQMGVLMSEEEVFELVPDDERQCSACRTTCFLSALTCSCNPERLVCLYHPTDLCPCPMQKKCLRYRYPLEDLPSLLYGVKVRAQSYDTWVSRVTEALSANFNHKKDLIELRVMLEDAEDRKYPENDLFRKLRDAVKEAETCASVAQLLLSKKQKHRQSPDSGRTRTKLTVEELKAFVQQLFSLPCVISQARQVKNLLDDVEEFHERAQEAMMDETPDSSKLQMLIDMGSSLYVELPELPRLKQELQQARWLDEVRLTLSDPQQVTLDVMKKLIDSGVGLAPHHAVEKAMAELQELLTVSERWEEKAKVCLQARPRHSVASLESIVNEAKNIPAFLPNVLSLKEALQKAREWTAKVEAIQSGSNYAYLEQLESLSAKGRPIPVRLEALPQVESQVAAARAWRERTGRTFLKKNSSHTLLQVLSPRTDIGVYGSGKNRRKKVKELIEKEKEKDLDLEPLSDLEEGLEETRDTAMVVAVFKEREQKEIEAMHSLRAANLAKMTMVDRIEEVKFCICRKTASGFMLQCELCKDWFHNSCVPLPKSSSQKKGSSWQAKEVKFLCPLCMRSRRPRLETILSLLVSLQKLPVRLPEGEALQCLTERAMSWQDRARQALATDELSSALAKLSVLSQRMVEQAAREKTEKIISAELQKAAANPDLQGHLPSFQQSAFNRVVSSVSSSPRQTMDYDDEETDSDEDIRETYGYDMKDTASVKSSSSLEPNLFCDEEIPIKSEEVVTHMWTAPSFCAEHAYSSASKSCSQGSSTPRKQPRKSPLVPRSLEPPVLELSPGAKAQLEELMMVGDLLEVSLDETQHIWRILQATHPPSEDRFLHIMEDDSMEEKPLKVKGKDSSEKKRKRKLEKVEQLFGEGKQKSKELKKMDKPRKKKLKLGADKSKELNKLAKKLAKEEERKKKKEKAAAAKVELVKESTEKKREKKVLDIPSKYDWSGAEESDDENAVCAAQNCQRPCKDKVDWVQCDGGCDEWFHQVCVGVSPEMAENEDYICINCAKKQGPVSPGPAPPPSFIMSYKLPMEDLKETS

[22] = tested on: OCI-AML-3; assay: Induction of DNA methylation in human OCI-AML-3 cells at 5 uM by ELISA; format: functional, cell-based; settings: time 3.0 day, TDE = time-dependent effect
[23] = tested on: THP-1; assay: Induction of myeloid differentiation in human THP-1 cells assessed as increase in CD11b level measured after 72 hrs by propidium iodide staining based flow cytometry; format: functional, cell-based; settings: dose 5-10 µM, DDE = dose-dependent effect
[24] = species on record: Homo sapiens; assay: Inhibition of full length recombinant human DNMT3A R771A mutant expressed in NiCo21(DE3) competent Escherichia coli cells to DNMT3L (unknown origin) protein-protein interaction using FAM-DNA as substrate by fluorescence anisotropy assay
[25] = species on record: Homo sapiens; assay: Inhibition of full length recombinant human DNMT3A R882H mutant expressed in NiCo21(DE3) competent Escherichia coli cells to DNMT3L (unknown origin) protein-protein interaction
[26] = tested on: K562; assay: Induction of apoptosis in human K562 cells measured after 72 hrs by annexinV staining based flow cytometry; format: functional, cell-based; settings: dose 7-12 µM, DDE = dose-dependent effect
[27] = species on record: Homo sapiens; assay: Inhibition of full length recombinant human DNMT3A R771A mutant tetramer expressed in NiCo21(DE3) competent Escherichia coli cells to DNMT3L (unknown origin) protein-protein interaction preincubated for 1 hr
[28] = species on record: Homo sapiens; assay: Inhibition of wild type full length recombinant human DNMT3A expressed in NiCo21(DE3) competent Escherichia coli cells to human TDG protein protein interaction using FAM/TGGATATCTAGGGGCGCTATGATAT as substrate incubated for 5 mins by microplate reader based fluorescence anisotropy assay; settings: DDE = dose-dependent effect
[29] = target: T1, DNMT3A2/3L complex (Homo sapiens); assay: […] of wild type full length recombinant human DNMT3A expressed in NiCo21(DE3) competent Escherichia coli cells to DNMT3L protein-protein interaction
[30] = tested on: THP-1; assay: Induction of apoptosis in human THP-1 cells measured after 72 hrs by annexinV staining based flow cytometry; format: functional, cell-based; settings: dose 7-12 µM, DDE = dose-dependent effect
[31] = tested on: K562; assay: Induction of DNA methylation in human K562 cells at 5 uM by ELISA; format: functional, cell-based; settings: time 3.0 day, TDE = time-dependent effect
[32] = target: DNA (cytosine-5)-methyltransferase 3A (Homo sapiens) (UniProt Q9Y6K1); assay: Inhibition of wild type full length recombinant human DNMT3A expressed in NiCo21(DE3) competent Escherichia coli cells assessed as decrease the fluorescence anisotrophy of DNA bound protein using FAM/TGGATATCTAGGGGCGCTATGATAT as substrate incubated for 5 mins by microplate reader based fluorescence anisotropy assay
[33] = species on record: Homo sapiens; assay: Inhibition of full length recombinant human DNMT3A E733A mutant tetramer expressed in NiCo21(DE3) competent Escherichia coli cells to DNMT3L (unknown origin) protein-protein interaction preincubated for 1 hr
[34] = tested on: Kasumi 1; assay: Induction of myeloid differentiation in human Kasumi 1 cells assessed as increase in CD11b level measured after 72 hrs by propidium iodide staining based flow cytometry; format: functional, cell-based; settings: DDE = dose-dependent effect
[35] = species on record: Homo sapiens; assay: Inhibition of full length recombinant human DNMT3A R882H mutant expressed in NiCo21(DE3) competent Escherichia coli cells to DNMT3L (unknown origin) using FAM-DNA as substrate
[36] = tested on: HL-60; assay: Induction of apoptosis in human HL-60 cells measured after 72 hrs by annexinVstaining based flow cytometry; format: functional, cell-based; settings: dose 7-12 µM, DDE = dose-dependent effect
[37] = tested on: MOLM-13; assay: Induction of myeloid differentiation in human MOLM-13 cells assessed as increase in CD11b level measured after 72 hrs by propidium iodide staining based flow cytometry; format: functional, cell-based; settings: dose 5-10 µM, DDE = dose-dependent effect
[38] = tested on: HL-60; assay: Induction of myeloid differentiation in human HL-60 cells assessed as increase in CD11b level measured after 72 hrs by propidium iodide staining based flow cytometry; format: functional, cell-based; settings: DDE = dose-dependent effect
[39] = species on record: Homo sapiens; assay: Inhibition of full length recombinant human DNMT3A R736 mutant tetramer expressed in NiCo21(DE3) competent Escherichia coli cells

COc1ccc(C2=NN(C3CCCCCC3)C(=O)[C@@H]3CC=CC[C@H]23)cc1OCCCCOc1ccc(-c2nnn[nH]2)cc1
active: Activity [1] Dde | inhibition [2] | inhibition [3] | inhibition [4] Dde | Activity [5] Dde | Activity [6] Dde | inhibition [7] | inhibition [8] | inhibition [9] | Activity [10] Dde | inhibition [11] | inhibition [12] | Activity [13] Dde | Activity [14] Dde | inhibition [15] | inhibition [16] | Activity [17] Dde | Activity [18] Tde | inhibition [19] | inhibition [20] | inhibition [21] | Activity [22] Tde | Activity [23] Dde | inhibition [24] | inhibition [25] | Activity [26] Dde | inhibition [27] | inhibition [28] Dde | Activity [29] | Activity [30] Dde | Activity [31] Tde | inhibition [32] | inhibition [33] | Activity [34] Dde | inhibition [35] | Activity [36] Dde | Activity [37] Dde | Activity [38] Dde | inhibition [39]

COc1ccc(C2=NN(C3CCCCCC3)C(=O)C2(C)C)cc1OCCCCOc1ccc(-c2nn[nH]n2)cc1
active: inhibition [4] Dde | inhibition [7] | inhibition [8] | inhibition [15] | inhibition [16] | inhibition [19] | inhibition [21] | inhibition [25] | inhibition [28] Dde | Activity [29] | inhibition [32] | inhibition [35]
